Reference: patent US9587005B2 (priority 2010, dated 2017)
Where two headings read alike, the source gives them in different places. *1 amine or outer side, *2 acyl side, *3 side chain or, on linkers, in order; H or OH if unused. Where a SMILES comes first, the peptide text is derived from it. Where no end group is shown, it is not given here. Side-chain parts run from the residue outwards. [ ]: non-standard residue; d: D form. The star is where a group is joined. γGlu = O=C(O)[C@H](CCC(=O)[*:2])N[*:1]; Palmitoyl = CCCCCCCCCCCCCCCC(=O)*; Aib = CC(C)(N)C(=O)O

Tests used:
GLP-1 receptor = biological target: T1, GLP-1 receptor (Homo sapiens, UniProt P43220); experiment: cAMP induction, firefly luciferase reporter assay in HEK293 cells co-transfected with GLP-1 receptor; type: cell-based
T1 construct: expressed in transfected cells; host or cells: HEK293
T1 sequence (P43220 24-463): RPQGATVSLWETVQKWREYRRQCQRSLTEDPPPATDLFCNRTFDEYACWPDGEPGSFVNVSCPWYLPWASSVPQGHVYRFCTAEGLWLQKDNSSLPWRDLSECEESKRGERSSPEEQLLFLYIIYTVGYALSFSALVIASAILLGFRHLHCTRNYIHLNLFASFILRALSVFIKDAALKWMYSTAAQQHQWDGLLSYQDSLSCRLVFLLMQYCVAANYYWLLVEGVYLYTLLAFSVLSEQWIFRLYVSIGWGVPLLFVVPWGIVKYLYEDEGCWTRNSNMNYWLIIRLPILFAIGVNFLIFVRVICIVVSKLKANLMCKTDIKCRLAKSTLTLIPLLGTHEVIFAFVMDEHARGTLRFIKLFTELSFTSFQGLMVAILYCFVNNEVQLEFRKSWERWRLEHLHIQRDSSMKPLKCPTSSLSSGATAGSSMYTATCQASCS
Description: (§1) This example describes an exemplary method of testing the biological activity of the peptides of the present disclosures, which method involves assaying cAMP synthesis.

glucagon receptor = biological target: T2, glucagon receptor (Homo sapiens, UniProt P47871); experiment: cAMP induction, firefly luciferase reporter assay in HEK293 cells co-transfected with glucagon receptor; type: cell-based
T2 construct: expressed in transfected cells; host or cells: HEK293
T2 sequence (P47871 26-477): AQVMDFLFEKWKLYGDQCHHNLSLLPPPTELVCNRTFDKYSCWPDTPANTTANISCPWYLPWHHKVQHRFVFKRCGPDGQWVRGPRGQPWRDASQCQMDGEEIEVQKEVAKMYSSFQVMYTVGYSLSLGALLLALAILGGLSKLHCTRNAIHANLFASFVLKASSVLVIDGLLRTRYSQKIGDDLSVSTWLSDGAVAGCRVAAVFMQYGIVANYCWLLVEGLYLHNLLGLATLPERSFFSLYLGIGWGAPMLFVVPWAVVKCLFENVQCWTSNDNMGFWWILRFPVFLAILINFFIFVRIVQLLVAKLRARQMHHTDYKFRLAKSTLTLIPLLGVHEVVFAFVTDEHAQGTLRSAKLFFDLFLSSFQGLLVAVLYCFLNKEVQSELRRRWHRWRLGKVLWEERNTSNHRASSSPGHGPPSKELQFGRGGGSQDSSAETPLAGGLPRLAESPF
Description: as §1

[1] = EC50 (nM) at GLP-1 Receptor, Table 4, Example 9, composite of multiple different activity assays
[2] = EC50 (nM) at Glucagon Receptor, Table 4, Example 9, composite of multiple different activity assays

| Compound | EC50 (GLP-1 receptor; [1]) | EC50 (glucagon receptor; [2]) | also measured |
| --- | --- | --- | --- |
| CCCCCCCCCCCCCCCC(=O)N[C@@H](CCC(=O)NCCCC[C@H](NC(=O)[C@H](CC(=O)O)NC(=O)[C@H](CO)NC(=O)[C@@H](NC(=O)[C@H](Cc1ccccc1)NC(=O)[C@@H](NC(=O)CNC(=O)[C@H](CCC(N)=O)NC(=O)[C@@H](CO)NC(=O)[C@@H](N)Cc1c[nH]cn1)[C@@H](C)O)[C@@H](C)O)C(=O)N[C@@H](CO)C(=O)N[C@@H](CCCCN)C(=O)N[C@@H](Cc1ccc(O)cc1)C(=O)N[C@@H](CC(C)C)C(=O)N[C@@H](CC(=O)O)C(=O)N[C@@H](CCC(=O)O)C(=O)N[C@@H](CCCNC(=N)N)C(=O)N[C@@H](CCCNC(=N)N)C(=O)N[C@@H](C)C(=O)NC(C)(C)C(=O)N[C@@H](CCC(=O)O)C(=O)N[C@@H](Cc1ccccc1)C(=O)N[C@H](C(=O)N[C@@H](CCC(N)=O)C(=O)N[C@@H](Cc1c[nH]c2ccccc12)C(=O)N[C@@H](CC(C)C)C(=O)N[C@@H](CC(C)C)C(=O)N[C@@H](CC(=O)O)C(=O)N[C@H](C(N)=O)[C@@H](C)O)C(C)C)C(=O)O [compound 30] (H-H[dS]QGTFTSDK([γGlu-Palmitoyl])SKYLDERRA[Aib]EFVQWLLDT-NH2; N-terminus assumed) | 0.0031 nM | 0.008 nM | – |
| CCCCCCCCCCCCCCCC(=O)N[C@@H](CCC(=O)NCCCC[C@H](NC(=O)[C@H](CC(=O)O)NC(=O)[C@H](CO)NC(=O)[C@@H](NC(=O)[C@H](Cc1ccccc1)NC(=O)[C@@H](NC(=O)CNC(=O)[C@H](CCC(N)=O)NC(=O)[C@@H](CO)NC(=O)C(C)(C)c1c[nH]cn1)[C@@H](C)O)[C@@H](C)O)C(=O)N[C@@H](CO)C(=O)N[C@@H](CCCCN)C(=O)N[C@@H](Cc1ccc(O)cc1)C(=O)N[C@@H](CC(C)C)C(=O)N[C@@H](CC(=O)O)C(=O)N[C@@H](CCC(=O)O)C(=O)N[C@@H](CCCNC(=N)N)C(=O)N[C@@H](C)C(=O)N[C@@H](C)C(=O)N[C@@H](CCC(N)=O)C(=O)N[C@@H](CC(=O)O)C(=O)N[C@@H](Cc1ccccc1)C(=O)N[C@H](C(=O)N[C@@H](CCC(N)=O)C(=O)N[C@@H](Cc1c[nH]c2ccccc12)C(=O)N[C@@H](CC(C)C)C(=O)N[C@@H](CC(C)C)C(=O)N[C@@H](CC(=O)O)C(=O)N[C@H](C(N)=O)[C@@H](C)O)C(C)C)C(=O)O [compound 32] | – | – | EC50 (GLP-1 receptor): 0.003 nM; EC50 (glucagon receptor; Table 4, Example 9, composite of multiple different activity assays): 0.004 nM |
| CCCCCCCCCCCCCCCC(=O)N[C@@H](CCC(=O)N[C@@H](CCC(=O)NCCCC[C@H](NC(=O)[C@H](CC(=O)O)NC(=O)[C@H](CO)NC(=O)[C@@H](NC(=O)[C@H](Cc1ccccc1)NC(=O)[C@@H](NC(=O)CNC(=O)[C@H](CCC(N)=O)NC(=O)C(C)(C)NC(=O)[C@@H](N)Cc1c[nH]cn1)[C@@H](C)O)[C@@H](C)O)C(=O)N[C@@H](CO)C(=O)N[C@@H](CCCCN)C(=O)N[C@@H](Cc1ccc(O)cc1)C(=O)N[C@@H](CC(C)C)C(=O)N[C@@H](CC(=O)O)C(=O)NC(C)(C)C(=O)N[C@@H](CCCNC(=N)N)C(=O)N[C@@H](C)C(=O)N[C@@H](C)C(=O)N[C@@H](CCC(N)=O)C(=O)N[C@@H](CC(=O)O)C(=O)N[C@@H](Cc1ccccc1)C(=O)N[C@H](C(=O)N[C@@H](CCC(N)=O)C(=O)N[C@@H](Cc1c[nH]c2ccccc12)C(=O)N[C@@H](CC(C)C)C(=O)N[C@@H](CCSC)C(=O)N[C@@H](CC(=O)O)C(=O)NCC(=O)NCC(=O)N1CCC[C@H]1C(=O)N[C@@H](CO)C(=O)N[C@@H](CO)C(=O)NCC(=O)N[C@@H](C)C(=O)N1CCC[C@H]1C(=O)N1CCC[C@H]1C(=O)N1CCC[C@H]1C(=O)N[C@@H](CO)C(N)=O)C(C)C)C(=O)O)C(=O)O [compound 33] (H-H[Aib]QGTFTSDK([γGlu-γGlu-Palmitoyl])SKYLD[Aib]RAAQDFVQWLMDGGPSSGAPPPS-NH2) | 0.004 nM | 0.005 nM | – |
| H[Aib]QGTFTSDYSKYLDERAAQDFVQWLLDAGPSSGAPPPSK([γGlu-γGlu-Palmitoyl])G-NH2 [SEQ ID NO: 204] | – | – | EC50 (GLP-1 receptor; EC50 (nM) at GLP-1 receptor, Table 16, Example 24): 0.001 nM; EC50 (glucagon receptor; EC50 (nM) at glucagon receptor, Table 16, Example 24): 0.003 nM |
